Source: US20240100190A1, “Brain Disease Therapy Enhancing Inhibition of GABAergic Neurons” (priority 2022, published 2024)

Legend:
[1] = Spontaneous locomotion detection (active time); conditions: after CNO administration in two groups
Experimental: The animals are housed separately under a standard 12-h light/dark cycle and stable temperature (23-25° C.) with full access to food and water.
A summation of each pixel value for the difference is used to decide whether the animal moves between these three frames. […] Animal movements are analyzed by the program. The active time for each mouse is determined every 24 h.
The behavioral effects after CNO intervention in the two groups are evaluated.

GABAergic neurons [2] = assay: CNO administration and in vivo recordings in the auditory cortex; parameters: species or system mice
Experimental: In vivo recordings are performed in the ACs of mice using the same surgery setup described above.
For each time point, an average of six evoked responses is used. The inventors average the LFP amplitudes every six trials (MATLAB), which represents a 1-min recording. The representative waveforms are also plotted with MATLAB (MathWorks.Inc, Natick, US; https://ww2.mathworks.cn/). […] The results are exported into Excel for offline analysis and plotting.
C57BL/6J male mice (6-7 weeks old) are anesthetized with pentobarbital (100 mg/kg) supplemented with atropine (0.05 mg/kg, Sigma). The anesthetized mice are head-fixed using a stereotaxic device (RWD Life Science; Shen Zhen, China; https://www.rwdstco.com/). […] The PHP.eB serotype virus, which readily crosses the BBB for brain transduction, is produced using standard production methods. A glass pipette tip (at an angle of […] to about 45°) is used to slowly touch the surface of the transverse venous sinus with the injection pump running at a slow speed (100 nL/min). After the glass pipette tip penetrates the vessel, the injection speed is increased to 1,000 nL/min. A total of 50 μL of the virus (1.5E12 VGs/kg of body weight, VG, vector genome) is injected.
To verify the CNO administration can suppress the response to the AS through the potentiation of inhibition, electrophysiological recordings of neuronal firing and LFP response to the AS before and after the CNO application are performed.

GABAergic neurons [3] = assay: Current-clamp cortical slice recordings with CNO application; type: cell-based, mice; conditions: after CNO, hM3Dq-expressing neurons in cortical slices, 13 neurons
Experimental: Briefly, anesthetized mice receive transcardial perfusion withN-methyl-D-glucamine (NMDG)-aCSF (92 mM NMDG, 2.5 mM KCl, 1.2 mM NaH2PO4, 30 mM NaHCO3, 20 mM N-2-Hydroxyethylpiperazine-N-2-Ethane Sulfonic Acid (HEPES), 25 mM glucose, 2 mM thiourea, 5 mM Na-ascorbate, 3 mM Na-pyruvate, 0.5 mM CaCl2·4H2O, and 10 mM MgSO4·7H2O; adjusted pH to 7.3-7.4 with concentrated HCl), and the brain is gently and rapidly extracted from the skull and then cut into 300 μm-thick sections with a vibratome (Leica VT1200S). […]
Brain slices are then bathed in room-temperature recording aCSF (124 mM NaCl, 2.5 mM KCl, 1.2 mM NaH2PO4, 24 mM NaHCO3, 5 mM HEPES, 12.5 mM glucose, 2 mM CaCl2·4H2O and 2 mM MgSO4·7H2O, ˜25° C.) and whole-cell recordings are made at the auditory cortex using Multiclamp 700B amplifier (Molecular Devices, www.moleculardevices.com, Menlo Park, California, USA) and Digital 1440A digitizer (Molecular Devices, www.moleculardevices.com, Menlo Park, California, USA). […] 0.3 mL CNO (0.2 mg/mL) is gently infused into the recording chamber (5-7 mL recording aCSF) and recorded for at least 20 minutes. The firing rate is analyzed with Clampfit 11.2 (Molecular Devices, www.moleculardevices.com, Menlo Park, California, USA). […]

GABAergic neurons [4] = assay: Laser pulse induced IPSC recording in cortex; type: cell-based, Vgat-Cre mice; conditions: hM3Dq and DIO-ChrimsonR-mCherry injected cortex; laser 0.1 Hz; baseline 100.22±0.66%
Excerpt: FIG. 4A is a diagram showing the hM3Dq and DIO-ChrimsonR-mCherry injection into the cortex of Vgat-Cre mice.

[5] = hM3Dq mice, n=30 recording sites

For C[N+]1([O-])CCN(C2=Nc3cc(Cl)ccc3Nc3ccccc32)CC1 [CNO, clozapine-N-oxide], the “side effects (astrocytic reactivity and locomotion)” value [1] was “not detected”, the “duration of activation of the new units after the CNO application” value (GABAergic neurons [2]; hM3Dq mice) was 25 min and the “number of spike-sorted units after the CNO injection” value (GABAergic neurons [2]; [5]) was 4.30±0.27. For the same compound, the “number of spike-sorted units before CNO injection” value (GABAergic neurons [2]; [5]) was 2.73±0.27, the “maximum firing frequency during the bursts of the new units after CNO application” value (GABAergic neurons [2]; n=44 units, mean) was 32.63±3.30 Hz and the “mean highest firing rate in bursts” value (GABAergic neurons [3]) was 33.24±2.46 Hz. The “normalized IPSCs amplitude 35-40 min after CNO” value (GABAergic neurons [4]) was 250.62±6.46%.
